For the test, the target named is Potassium voltage-gated channel subfamily KQT member 1 (Homo sapiens) (UniProt P51787). The test can be described thus: human KCNQ1 channel activators, SAR follow-up, automated patch clamp, CHO cells, set 2 (AID 602121). The conditions noted are these: for current activation: at 30 µM (top of the series); for EC50: automated patch clamp current.

The structures appear in SMILES notation. Activity calls are given as the source filed them.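 The calls were made as follows: active = opens the KCNQ1 potassium channel at some tested dose and gives a fittable dose response curve; inactive = the rest.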

Sequence of Potassium voltage-gated channel subfamily KQT member 1 (Homo sapiens) (P51787 whole entry, looked up): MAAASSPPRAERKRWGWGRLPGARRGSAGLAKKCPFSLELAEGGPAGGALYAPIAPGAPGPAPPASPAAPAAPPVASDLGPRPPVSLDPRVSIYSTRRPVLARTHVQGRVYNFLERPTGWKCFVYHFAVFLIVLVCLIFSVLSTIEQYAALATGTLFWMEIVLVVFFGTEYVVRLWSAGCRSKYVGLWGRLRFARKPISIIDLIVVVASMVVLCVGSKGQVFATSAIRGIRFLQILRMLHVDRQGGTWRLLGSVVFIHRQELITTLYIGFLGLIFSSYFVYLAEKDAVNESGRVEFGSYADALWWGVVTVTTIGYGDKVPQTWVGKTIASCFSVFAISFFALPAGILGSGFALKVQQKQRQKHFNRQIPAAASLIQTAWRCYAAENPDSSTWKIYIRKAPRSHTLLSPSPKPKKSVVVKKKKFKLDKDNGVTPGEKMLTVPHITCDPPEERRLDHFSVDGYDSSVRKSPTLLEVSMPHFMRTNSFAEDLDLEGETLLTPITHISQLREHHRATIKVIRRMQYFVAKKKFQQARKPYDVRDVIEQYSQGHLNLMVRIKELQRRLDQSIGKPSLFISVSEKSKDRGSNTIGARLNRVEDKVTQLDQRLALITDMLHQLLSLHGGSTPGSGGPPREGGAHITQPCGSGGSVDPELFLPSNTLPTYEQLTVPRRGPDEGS

For the molecule `Cc1ccc(S(=O)(=O)N2CCCC[C@@H]2C(=O)Nc2cccc([N+](=O)[O-])c2)cc1`, the current activation entry was “inactive”.
As for `COc1ccc(-c2csc(NC(=O)[C@H]3CCCCN3S(=O)(=O)c3ccc4c(c3)OCO4)n2)cc1`, the EC50 is 778 nM.
On to `COC(=O)c1cccc(NC(=O)[C@H]2CCCCN2S(=O)(=O)c2ccc(C)cc2)c1`, for which the current activation entry is “inactive”.
On to `Cc1ccc(S(=O)(=O)N2CCCC[C@@H]2C(=O)Nc2ccncc2)cc1`, for which the current activation entry was “inactive”.
On the same count and under the same terms, to `Cc1ccc(S(=O)(=O)N2CCCC[C@@H]2C(=O)Nc2ccccc2)cc1` belongs “inactive”.
`Cc1ccc(S(=O)(=O)N2CCCC[C@@H]2C(=O)Nc2cccc(C(F)(F)F)c2)cc1`: the EC50 is 3240 nM.
Consider `Cc1ccc(S(=O)(=O)N2CCCC[C@@H]2C(=O)Nc2ccc(C)c(C)c2)cc1`, for which the EC50 was 2250 nM.
`Cc1ccc(S(=O)(=O)N2CCCC[C@@H]2C(=O)Nc2ccc(C)c(Br)c2)cc1`: the current activation entry was “inactive”.
Still for that read-out and setting: to `CCc1cccc(NC(=O)[C@H]2CCCCN2S(=O)(=O)c2ccc(C)cc2)n1` belongs “inactive”.
Same read-out and setting: then `Cc1ccc(S(=O)(=O)N2CCCC[C@@H]2C(=O)Nc2cccc(Cl)n2)cc1`, with “inactive”.
As for `Cc1ccc(S(=O)(=O)N2CCCC[C@@H]2C(=O)Nc2ccc(F)c(C)c2)cc1`, the EC50 was 3350 nM.
In the case of `COc1cccc(NC(=O)[C@H]2CCCCN2S(=O)(=O)c2ccc(C)cc2)c1`, the current activation result is “inactive”.

The values are drawn from PubChem BioAssay AID602121 (Johns Hopkins Ion Channel Center, 2011).
